#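 Tested at 5 concentrations; 48 h exposure; 96-well plates; endpoints linearly interpolated, else capped at highest concentration. Here, GI50 denotes the concentration required for 50% inhibition of growth. TGI denotes the concentration required for complete inhibition of growth.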
# Tests used:
# Assay in all cases: growth of human tumour cells (NCI), 48 h
# RPMI-8226 leukemia = tested on: RPMI-8226 leukemia
# DMS 273 small cell lung = tested on: DMS 273 small cell lung
# KM12 colon = tested on: KM12 colon
# SNB-19 CNS = tested on: SNB-19 CNS
# M19-MEL melanoma = tested on: M19-MEL melanoma
# UACC-257 melanoma = tested on: UACC-257 melanoma
# K-562 leukemia = tested on: K-562 leukemia
# RXF-631 renal = tested on: RXF-631 renal
# UACC-62 melanoma = tested on: UACC-62 melanoma
# A498 renal = tested on: A498 renal
# A549 NSCLC = tested on: A549 NSCLC
# SK-MEL-28 melanoma = tested on: SK-MEL-28 melanoma
# MALME-3M melanoma = tested on: MALME-3M melanoma
# NCI-H23 lung = tested on: NCI-H23 lung
# HCT-116 colon = tested on: HCT-116 colon
# 786-0 renal = tested on: 786-0 renal
# OVCAR-8 ovarian = tested on: OVCAR-8 ovarian
# HCT-15 colon = tested on: HCT-15 colon
# KM20L2 colon = tested on: KM20L2 colon
# RXF 393 renal = tested on: RXF 393 renal
# OVCAR-4 ovarian = tested on: OVCAR-4 ovarian
# U251 CNS = tested on: U251 CNS
# SNB-75 CNS = tested on: SNB-75 CNS
# UO-31 renal = tested on: UO-31 renal
# SF-539 CNS = tested on: SF-539 CNS
# SW-620 colon = tested on: SW-620 colon
# M14 melanoma = tested on: M14 melanoma
# IGROV1 ovarian = tested on: IGROV1 ovarian
# SK-OV-3 ovarian = tested on: SK-OV-3 ovarian
# LXFL 529 NSCLC = tested on: LXFL 529 NSCLC
# HOP-92 NSCLC = tested on: HOP-92 NSCLC
# TK-10 renal = tested on: TK-10 renal
# NCI-H226 lung = tested on: NCI-H226 lung
# HOP-62 NSCLC = tested on: HOP-62 NSCLC
# COLO 205 colon = tested on: COLO 205 colon
# HL-60(TB) leukemia = tested on: HL-60(TB) leukemia
# LOX IMVI melanoma = tested on: LOX IMVI melanoma
# HCC-2998 colon = tested on: HCC-2998 colon
# MOLT-4 leukemia = tested on: MOLT-4 leukemia
# SR leukemia = tested on: SR leukemia
# CAKI-1 renal = tested on: CAKI-1 renal
# OVCAR-5 ovarian = tested on: OVCAR-5 ovarian
# DLD-1 colon = tested on: DLD-1 colon
# EKVX NSCLC = tested on: EKVX NSCLC
# NCI-H522 lung = tested on: NCI-H522 lung
# NCI-H460 lung = tested on: NCI-H460 lung
# SK-MEL-2 melanoma = tested on: SK-MEL-2 melanoma
# HT29 colon = tested on: HT29 colon
# ACHN renal = tested on: ACHN renal
# SF-295 CNS = tested on: SF-295 CNS
# OVCAR-3 ovarian = tested on: OVCAR-3 ovarian
# SNB-78 CNS = tested on: SNB-78 CNS
# SN12C renal = tested on: SN12C renal
# CCRF-CEM leukemia = tested on: CCRF-CEM leukemia
# DMS 114 small cell lung = tested on: DMS 114 small cell lung
# XF 498 CNS = tested on: XF 498 CNS
# SK-MEL-5 melanoma = tested on: SK-MEL-5 melanoma
# HOP-18 NSCLC = tested on: HOP-18 NSCLC
# SF-268 CNS = tested on: SF-268 CNS
structure (smiles),measurement,setting,value
C/C=C(\C)C(=O)N1c2ccccc2CC1c1c(C)[nH]c2ccccc12 (configuration not stated),TGI,RPMI-8226 leukemia,> 100 µM
same,TGI,DMS 273 small cell lung,> 100 µM
same,TGI,KM12 colon,> 100 µM
same,TGI,SNB-19 CNS,> 100 µM
same,TGI,M19-MEL melanoma,> 100 µM
same,TGI,UACC-257 melanoma,> 100 µM
same,TGI,K-562 leukemia,> 100 µM
same,TGI,RXF-631 renal,> 100 µM
same,TGI,UACC-62 melanoma,> 100 µM
same,TGI,A498 renal,> 100 µM
same,TGI,A549 NSCLC,> 100 µM
same,TGI,SK-MEL-28 melanoma,> 100 µM
same,TGI,MALME-3M melanoma,> 100 µM
same,TGI,NCI-H23 lung,> 100 µM
same,TGI,HCT-116 colon,> 100 µM
same,TGI,786-0 renal,> 100 µM
same,TGI,OVCAR-8 ovarian,> 100 µM
same,TGI,HCT-15 colon,> 100 µM
same,TGI,KM20L2 colon,> 100 µM
same,TGI,RXF 393 renal,> 100 µM
same,TGI,OVCAR-4 ovarian,> 100 µM
same,TGI,U251 CNS,> 100 µM
same,TGI,SNB-75 CNS,> 100 µM
same,TGI,UO-31 renal,> 100 µM
same,TGI,SF-539 CNS,> 100 µM
same,TGI,SW-620 colon,> 100 µM
same,TGI,M14 melanoma,> 100 µM
same,TGI,IGROV1 ovarian,> 100 µM
same,TGI,SK-OV-3 ovarian,> 100 µM
same,TGI,LXFL 529 NSCLC,> 100 µM
same,TGI,HOP-92 NSCLC,99.4 µM
same,TGI,TK-10 renal,> 100 µM
same,TGI,NCI-H226 lung,> 100 µM
same,TGI,HOP-62 NSCLC,> 100 µM
same,TGI,COLO 205 colon,74.5 µM
same,TGI,HL-60(TB) leukemia,> 100 µM
same,TGI,LOX IMVI melanoma,> 100 µM
same,TGI,HCC-2998 colon,> 100 µM
same,TGI,MOLT-4 leukemia,> 100 µM
same,TGI,SR leukemia,> 100 µM
same,TGI,CAKI-1 renal,> 100 µM
same,TGI,OVCAR-5 ovarian,> 100 µM
same,TGI,DLD-1 colon,> 100 µM
same,TGI,EKVX NSCLC,> 100 µM
same,TGI,NCI-H522 lung,> 100 µM
same,TGI,NCI-H460 lung,> 100 µM
same,TGI,SK-MEL-2 melanoma,69.6 µM
same,TGI,HT29 colon,> 100 µM
same,TGI,ACHN renal,> 100 µM
same,TGI,SF-295 CNS,> 100 µM
same,TGI,OVCAR-3 ovarian,> 100 µM
same,TGI,SNB-78 CNS,> 100 µM
same,TGI,SN12C renal,> 100 µM
same,TGI,CCRF-CEM leukemia,> 100 µM
CC(C)c1cc(C(=O)[O-])c(O)c(C(C)C)c1.CC(C)c1cc(C(=O)[O-])c(O)c(C(C)C)c1.CC(C)c1cc(C(=O)[O-])c(O)c(C(C)C)c1.CC(C)c1cc(C(=O)[O-])c(O)c(C(C)C)c1.CC(C)c1cc(C(=O)[O-])c(O)c(C(C)C)c1.CC(C)c1cc(C(=O)[O-])c(O)c(C(C)C)c1.[Cu+2].[Mn+2].[Mn+2],GI50,RPMI-8226 leukemia,14.5 µM
same,TGI,RPMI-8226 leukemia,50.4 µM
same,GI50,DMS 273 small cell lung,22.4 µM
same,TGI,DMS 273 small cell lung,> 100 µM
same,GI50,KM12 colon,18.2 µM
same,TGI,KM12 colon,43.4 µM
same,GI50,SNB-19 CNS,20.8 µM
same,TGI,SNB-19 CNS,47.8 µM
same,GI50,M19-MEL melanoma,5.67 µM
same,TGI,M19-MEL melanoma,18.7 µM
same,GI50,UACC-257 melanoma,29.6 µM
same,TGI,UACC-257 melanoma,67.1 µM
same,GI50,K-562 leukemia,12.8 µM
same,TGI,K-562 leukemia,50.4 µM
same,GI50,DMS 114 small cell lung,17.8 µM
same,TGI,DMS 114 small cell lung,34.6 µM
same,GI50,UACC-62 melanoma,15.3 µM
same,TGI,UACC-62 melanoma,34.4 µM
same,GI50,A498 renal,34.1 µM
same,TGI,A498 renal,82.2 µM
same,GI50,A549 NSCLC,11.1 µM
same,TGI,A549 NSCLC,33.8 µM
same,GI50,SK-MEL-28 melanoma,20.5 µM
same,TGI,SK-MEL-28 melanoma,45.3 µM
same,GI50,MALME-3M melanoma,15.1 µM
same,TGI,MALME-3M melanoma,28.7 µM
same,GI50,NCI-H23 lung,20.1 µM
same,TGI,NCI-H23 lung,45.6 µM
same,GI50,HCT-116 colon,21.2 µM
same,TGI,HCT-116 colon,37.8 µM
same,GI50,786-0 renal,20.3 µM
same,TGI,786-0 renal,46.9 µM
same,GI50,OVCAR-8 ovarian,29.3 µM
same,TGI,OVCAR-8 ovarian,81 µM
same,GI50,HCT-15 colon,39.3 µM
same,TGI,HCT-15 colon,> 100 µM
same,GI50,KM20L2 colon,26.1 µM
same,TGI,KM20L2 colon,> 100 µM
same,GI50,OVCAR-4 ovarian,16.1 µM
same,TGI,OVCAR-4 ovarian,47.8 µM
same,GI50,U251 CNS,9.43 µM
same,TGI,U251 CNS,22.7 µM
same,GI50,SNB-75 CNS,24.8 µM
same,TGI,SNB-75 CNS,68.7 µM
same,GI50,XF 498 CNS,30.2 µM
same,TGI,XF 498 CNS,71.5 µM
same,GI50,UO-31 renal,16.5 µM
same,TGI,UO-31 renal,32.6 µM
same,GI50,SF-539 CNS,22.1 µM
same,TGI,SF-539 CNS,39.8 µM
same,GI50,SW-620 colon,14.8 µM
same,TGI,SW-620 colon,29.5 µM
same,GI50,M14 melanoma,14.8 µM
same,TGI,M14 melanoma,30.4 µM
same,GI50,IGROV1 ovarian,15.2 µM
same,TGI,IGROV1 ovarian,38.4 µM
same,GI50,SK-OV-3 ovarian,2.61 µM
same,TGI,SK-OV-3 ovarian,16.1 µM
same,GI50,LXFL 529 NSCLC,19.6 µM
same,TGI,LXFL 529 NSCLC,46.3 µM
same,GI50,HOP-92 NSCLC,19.9 µM
same,TGI,HOP-92 NSCLC,54 µM
same,GI50,TK-10 renal,39.5 µM
same,TGI,TK-10 renal,91.7 µM
same,GI50,HOP-62 NSCLC,21 µM
same,TGI,HOP-62 NSCLC,42 µM
same,GI50,COLO 205 colon,10.9 µM
same,TGI,COLO 205 colon,25.6 µM
same,GI50,HL-60(TB) leukemia,17.7 µM
same,TGI,HL-60(TB) leukemia,53.9 µM
same,GI50,LOX IMVI melanoma,17 µM
same,TGI,LOX IMVI melanoma,36.3 µM
same,GI50,MOLT-4 leukemia,20.3 µM
same,TGI,MOLT-4 leukemia,66.1 µM
same,GI50,SK-MEL-5 melanoma,17.1 µM
same,TGI,SK-MEL-5 melanoma,32.3 µM
same,GI50,HOP-18 NSCLC,13.3 µM
same,TGI,HOP-18 NSCLC,29.1 µM
same,GI50,CAKI-1 renal,30.9 µM
same,TGI,CAKI-1 renal,53.3 µM
same,GI50,OVCAR-5 ovarian,28.2 µM
same,TGI,OVCAR-5 ovarian,49.3 µM
same,GI50,DLD-1 colon,17.8 µM
same,TGI,DLD-1 colon,35.9 µM
same,GI50,EKVX NSCLC,23.3 µM
same,TGI,EKVX NSCLC,> 100 µM
same,GI50,NCI-H522 lung,10.9 µM
same,TGI,NCI-H522 lung,25.1 µM
same,GI50,NCI-H460 lung,15.8 µM
same,TGI,NCI-H460 lung,32.2 µM
same,GI50,SK-MEL-2 melanoma,20.4 µM
same,TGI,SK-MEL-2 melanoma,42.6 µM
same,GI50,HT29 colon,15.6 µM
same,TGI,HT29 colon,31.4 µM
same,GI50,ACHN renal,31.7 µM
same,TGI,ACHN renal,> 100 µM
same,GI50,SF-295 CNS,18.1 µM
same,TGI,SF-295 CNS,49.5 µM
same,GI50,OVCAR-3 ovarian,2.87 µM
same,TGI,OVCAR-3 ovarian,10.4 µM
same,GI50,SNB-78 CNS,37 µM
same,TGI,SNB-78 CNS,> 100 µM
same,GI50,SN12C renal,20.9 µM
same,TGI,SN12C renal,49 µM
same,GI50,SF-268 CNS,35.5 µM
same,TGI,SF-268 CNS,82.7 µM
same,GI50,CCRF-CEM leukemia,15.8 µM
same,TGI,CCRF-CEM leukemia,42.8 µM

# Reference: PubChem BioAssay (NCI)
